Results as given in patent US20090300800A1, “D-Amino Acid a Selectable Marker for Barley (Hordeum Vulgare L.) Transformation” (BASF Plant Science GmbH, priority 2005, published 2009).
“And” between values parts separate entries of the source, which are not always exact repeats. Equal entries are not always repeated.

Tests used:
[1] = tested on: immature embryos from spring barley variety Golden Promise; experiment: In vitro germination bioassay of immature embryos on medium with D-serine or D-alanine; assay type: cell-based, barley (Hordeum vulgare L.); conditions: for Immature Embryos (%) germinated in vitro: scored after 14 days; for concentration lethal in the bioassay: immature embryo germination; for concentration above which seedlings were susceptible to the selection: seedlings from embryos isolated without endosperms
Description: In order to establish effective concentrations of D-Serine and D-Alanine on inhibiting growth of tissue cultured barley cells, a bioassay system using immature embryos was applied. Immature embryos from spring barley variety Golden Promise 2 mm in length were dissected onto germination PAW-5 hormone free medium with D-serine or D-alanine in range of concentrations between 0 and 5 mM and maintained at 25° C. with a 16 h photoperiod. The number of germinated embryos with well-developed shoots and brunched roots were scored after 14 days.

[2] = tested on: wild-type plants; conditions: plants not expressing D-amino acid oxidase; cited from earlier work
[3] = tested on: immature embryos / embryogenic callus from Golden Promise; experiment: Agrobacterium-mediated barley transformation with pRLM166 (dsdA), PAW media, selection on D-Serine; assay type: cell-based, barley (Hordeum vulgare L.); conditions: construct pRLM166, selection 5 mM D-Serine
[4] = tested on: immature embryos / embryogenic callus from Golden Promise; experiment: Agrobacterium-mediated barley transformation with pRLM167 or pRLM205 (dsdA, dao1, PAT), PAB media, selection on D-Serine or bialaphos; assay type: cell-based, barley (Hordeum vulgare L.)
[5] = 0.5 mM in PAW-5 hormone free medium
[6] = 1 mM in PAW-5 hormone free medium
[7] = 2 mM in PAW-5 hormone free medium
[8] = 5 mM in PAW-5 hormone free medium
[9] = construct pRLM167, selection 5 mM D-Serine or 5 mg/l bialaphos

Q: Which “Immature Embryos (%) germinated in vitro” value [1, 5] does the source give for `C[C@@H](N)C(=O)O` [D-alanine] here?
A: Its value is 37%.

Q: And the “Immature Embryos (%) germinated in vitro” value [1, 6]?
A: Its value is 0%.

Q: What about the “Immature Embryos (%) germinated in vitro” value [1, 7] of the same compound?
A: The value was 0%.

Q: And the “Immature Embryos (%) germinated in vitro” value [1, 8]?
A: The value was 0%.

Q: And the “concentration lethal in the bioassay” value [1]?
A: Its value is 1 mM.

Q: What about the “concentration above which seedlings were susceptible to the selection” value [1] of the same compound?
A: The value was over 1 mM.

Q: And the “toxicity to wild-type plants” value [2]?
A: Its value is “highly phytoptoxic to plants”.

Q: Which “toxicity to wild-type plants” value [2] does the source give for `CC[C@@H](C)[C@@H](N)C(=O)O` [D-isoleucine] here?
A: The value was “not toxic to wild-type plants”.

Q: Which results are given for `N[C@H](CO)C(=O)O` [D-serine]?
A: Immature Embryos (%) germinated in vitro [1, 5]: 49%; Immature Embryos (%) germinated in vitro [1, 6]: 17%; Immature Embryos (%) germinated in vitro [1, 7]: 0%; Immature Embryos (%) germinated in vitro [1, 8]: 0%; concentration lethal in the bioassay [1]: 2 mM; concentration above which seedlings were susceptible to the selection [1]: higher than 2 mM; toxicity to wild-type plants [2]: highly phytoptoxic to plants; TE % (Transformation Efficiency, % of transgenic plants out of the explants) [3]: 2.2% and 2.1%; TE % (Transformation Efficiency, % of transgenic plants out of the explants) [4, 9]: 4.6%; TE % (Transformation Efficiency, % of transgenic plants out of the explants) ([4]; construct pRLM205 (dao1), selection 5 mM D-Serine): 3.6%

Q: With `CC(C)[C@@H](N)C(=O)O` [D-valine] as the compound, how does the “toxicity to wild-type plants” value [2] read?
A: The value was “not toxic to wild-type plants”.

Q: With `C[C@H](NC(=O)[C@H](C)NC(=O)[C@@H](N)CCP(C)(=O)O)C(=O)O` [bialaphos] as the compound, how does the “TE % (Transformation Efficiency, % of transgenic plants out of the explants)” value [4, 9] read?
A: Its value is 3.4%.
